Source: patent US9012626B2, “Rebaudioside a composition and method for purifying rebaudioside a” (The Coca-Cola Company, priority 2006, dated 2015)

Test: Rate of dissolution in H2O at 25° C.
Assay type: physicochemical

Structure (SMILES) | Rate of dissolution in H2O at 25° C. (grade in words) | Rate of dissolution in H2O at 25° C. (amount dissolved) (in 60 minutes) | Rate of dissolution compared to the polymorphic forms (Forms 1, 2, or 3) | Rate of dissolution in H2O at 25° C. (amount dissolved) (in 5 minutes)
C=C1C[C@@]23CC[C@H]4[C@@](C)(CCC[C@@]4(C)C(=O)O[C@@H]4O[C@H](CO)[C@@H](O)[C@H](O)[C@H]4O)[C@@H]2CC[C@]1(O[C@@H]1O[C@H](CO)[C@@H](O)[C@H](O[C@@H]2O[C@H](CO)[C@@H](O)[C@H](O)[C@H]2O)[C@H]1O[C@@H]1O[C@H](CO)[C@@H](O)[C@H](O)[C@H]1O)C3 [Form 1, rebaudioside A] | Very low | (<0.2% in 60 |  | 
C=C1C[C@@]23CC[C@H]4[C@@](C)(CCC[C@@]4(C)C(=O)O[C@@H]4O[C@H](CO)[C@@H](O)[C@H](O)[C@H]4O)[C@@H]2CC[C@]1(O[C@@H]1O[C@H](CO)[C@@H](O)[C@H](O[C@@H]2O[C@H](CO)[C@@H](O)[C@H](O)[C@H]2O)[C@H]1O[C@@H]1O[C@H](CO)[C@@H](O)[C@H](O)[C@H]1O)C3 [Form 4, rebaudioside A] | High |  | improved rate of dissolution | (>35% in 5
C=C1C[C@@]23CC[C@H]4[C@@](C)(CCC[C@@]4(C)C(=O)O[C@@H]4O[C@H](CO)[C@@H](O)[C@H](O)[C@H]4O)[C@@H]2CC[C@]1(O[C@@H]1O[C@H](CO)[C@@H](O)[C@H](O[C@@H]2O[C@H](CO)[C@@H](O)[C@H](O)[C@H]2O)[C@H]1O[C@@H]1O[C@H](CO)[C@@H](O)[C@H](O)[C@H]1O)C3 [Form 2, rebaudioside A] | Intermediate |  |  | (<30% in 5
C=C1C[C@@]23CC[C@H]4[C@@](C)(CCC[C@@]4(C)C(=O)O[C@@H]4O[C@H](CO)[C@@H](O)[C@H](O)[C@H]4O)[C@@H]2CC[C@]1(O[C@@H]1O[C@H](CO)[C@@H](O)[C@H](O[C@@H]2O[C@H](CO)[C@@H](O)[C@H](O)[C@H]2O)[C@H]1O[C@@H]1O[C@H](CO)[C@@H](O)[C@H](O)[C@H]1O)C3 [Form 3, rebaudioside A] | High |  |  | (>30% in 5
